According to patent publication US8674118B2, “Compounds and methods for the treatment or prevention of flavivirus infections” (priority 2005, dated 2014):

Test system: HCV RNA replication (replicon cell lines Huh-7, 5.2 and ET)
Assay: Cell-Based Luciferase Reporter HCV RNA Replication Assay
Conditions: Hepatitis C virus, Huh-7, 96 h

| SMILES | IC50 |
| --- | --- |
| CC1CCC(C(=O)N(c2cc(C3=CC4CCC3C4)sc2C(=O)O)C2CCC(O)CC2)CC1 (stereo not drawn) [Compound 28, 5-bicyclo[2.2.1]hept-2-en-2-yl-3-[(4-trans-hydroxy-cyclohexyl)-(4-trans-methyl-cyclohexanecarbonyl)-amino]-thiophene-2-carboxylic acid] | > 25 µM |

Same assay, conditions: Hepatitis C virus, Huh-7, 96 h, Huh-7, 5.2 or ET replicon cells, luciferase counts after 4 days incubation; read-out: IC50

| SMILES | IC50 |
| --- | --- |
| C[C@H]1CC[C@H](C(=O)N(c2cc(C3=CCCC3)sc2C(=O)O)[C@H]2CC[C@H](O)CC2)CC1 [Compound 3, 5-Cyclopent-1-enyl-3-[(trans-4-hydroxy-cyclohexyl)-(trans-4-methyl-cyclohexanecarbonyl)-amino]-thiophene-2-carboxylic acid] | < 5 µM |
| C[C@H]1CC[C@H](C(=O)N(c2cc(C3=CCCCCC3)sc2C(=O)O)[C@H]2CC[C@H](O)CC2)CC1 [Compound 5, 5-Cyclohept-1-enyl-3-[(trans-4-hydroxy-cyclohexyl)-(trans-4-methyl-cyclohexanecarbonyl)-amino]-thiophene-2-carboxylic acid] | < 5 µM |
| C[C@H]1CC[C@H](C(=O)N(c2cc(C3CCCCCC3)sc2C(=O)O)[C@H]2CC[C@H](O)CC2)CC1 [Compound 6, 5-Cycloheptyl-3-[(trans-4-hydroxy-cyclohexyl)-(trans-4-methyl-cyclohexanecarbonyl)-amino]-thiophene-2-carboxylic acid] | < 5 µM |
| CC(C)N(c1cc(C2=CCCCC2)sc1C(=O)O)C(=O)[C@H]1CC[C@H](C)CC1 [Compound 7, 5-Cyclohex-1-enyl-3-[isopropyl-(trans-4-methyl-cyclohexanecarbonyl)-amino]-thiophene-2-carboxylic acid] | < 5 µM |
| C[C@H]1CC[C@H](C(=O)N(c2cc(C3=CCCCC3)sc2C(=O)O)C2CCC(=O)CC2)CC1 [Compound 8, 5-Cyclohex-1-enyl-3-[(trans-4-methyl-cyclohexanecarbonyl)-(4-oxo-cyclohexyl)-amino]-thiophene-2-carboxylic acid] | < 5 µM |
| C[C@H]1CC[C@H](C(=O)N(c2cc(C3=CCCCC3)sc2C(=O)O)[C@H]2CC[C@@H](O)CC2)CC1 [Compound 9, 5-Cyclohex-1-enyl-3-[(cis-4-hydroxy-cyclohexyl)-(trans-4-methyl-cyclohexanecarbonyl)-amino]-thiophene-2-carboxylic acid] | < 5 µM |
| C[C@H]1CC[C@H](C(=O)N(c2ccccc2)c2cc(C3=CCCCC3)sc2C(=O)O)CC1 [Compound 10, 5-Cyclohex-1-enyl-3-[(trans-4-methyl-cyclohexanecarbonyl)-phenyl-amino]-thiophene-2-carboxylic acid] | < 5 µM |
| C[C@H]1CC[C@H](C(=O)N(c2cc(C3=CCCCC3)sc2C(=O)O)C2CCCCC2)CC1 [Compound 11, 5-Cyclohex-1-enyl-3-[cyclohexyl-(trans-4-methyl-cyclohexanecarbonyl)-amino]-thiophene-2-carboxylic acid] | < 5 µM |
| CO[C@H]1CC[C@H](N(c2cc(C3=CCCCC3)sc2C(=O)O)C(=O)[C@H]2CC[C@H](C)CC2)CC1 [Compound 12, 5-Cyclohex-1-enyl-3-[(trans-4-methoxy-cyclohexyl)-(trans-4-methyl-cyclohexanecarbonyl)-amino]-thiophene-2-carboxylic acid] | < 5 µM |
| CC1CCC(C(=O)N(c2cc(C3=CCC4(CC3)OCCO4)sc2C(=O)O)C2CCC(O)CC2)CC1 (stereo not drawn) [Compound 14, 5-(1,4,Dioxa-spiro[4.5.]dec-7-en-8-yl)-3-[(trans-4-hydroxy-cyclohexyl)-(trans-4-methyl-cyclohexanecarbonyl)-amino]-thiophene-2-carboxylic acid] | < 5 µM |
| CC(C)N(C(=O)c1ccc(Cl)cc1Cl)c1cc(C2=CCCC2)sc1C(=O)O [Compound 15, 5-Cyclopent-1-enyl-3-[(2,4-dichloro-benzoyl)-isopropyl-amino]-thiophene-2-carboxylic acid] | > 25 µM |
| C[C@H]1CC[C@H](C(=O)N(c2cc(C3=CCCC3)sc2C(=O)O)[C@H]2CC[C@H](O)CC2)CC1 [Compound 16, 5-Cyclopent-1-enyl-3-[(trans-4-hydroxy-cyclohexyl)-(trans-4-methyl-cyclohexanecarbonyl)-amino]-thiophene-2-carboxylic acid] | < 5 µM |
| CO[C@H]1CC[C@H](N(c2cc(C3=CCC(C)(C)CC3)sc2C(=O)O)C(=O)[C@H]2CC[C@H](C)CC2)CC1 [Compound 20, 5-(4,4-Dimethyl-cyclohex-1-enyl)-3-[(trans-4-methoxy-cyclohexyl)-(trans-4-methyl-cyclohexanecarbonyl)-amino]-thiophene-2-carboxylic acid] | < 5 µM |
| CO[C@H]1CC[C@H](N(c2cc(C3CCC(C)(C)CC3)sc2C(=O)O)C(=O)[C@H]2CC[C@H](C)CC2)CC1 [Compound 21, 5-(4,4-Dimethyl-cyclohexyl)-3-[(trans-4-methoxy-cyclohexyl)-(trans-4-methyl-cyclohexanecarbonyl)-amino]-thiophene-2-carboxylic acid] | < 5 µM |
| CCO[C@H]1CC[C@H](N(c2cc(C3=CCCCC3)sc2C(=O)O)C(=O)[C@H]2CC[C@H](C)CC2)CC1 [Compound 22, 5-Cyclohex-1-enyl-3-[(trans-4-ethoxy-cyclohexyl)-(trans-4-methyl-cyclohexanecarbonyl)-amino]-thiophene-2-carboxylic acid] | < 5 µM |
| COC1CCC(N(C(=O)C2CCC(C)CC2)c2cc(C3=CCCCC3)sc2C(=O)O)CC1 (stereo not drawn) [Compound 23, 5-Cyclohex-1-enyl-3-[(cis-4-methoxy-cyclohexyl)-(4-trans-methyl-cyclohexanecarbonyl)-amino]-thiophene-2-carboxylic acid] | < 5 µM |
| COCO[C@H]1CC[C@H](N(c2cc(C3=CCCCC3)sc2C(=O)O)C(=O)[C@H]2CC[C@H](C)CC2)CC1 [Compound 24, 5-Cyclohex-1-enyl-3-[(trans-4-methoxymethoxy-cyclohexyl)-(trans-4-methyl-cyclohexanecarbonyl)-amino]-thiophene-2-carboxylic acid] | < 5 µM |
| CC1CCC(C(=O)N(c2cc(C3=CCC(=O)CC3)sc2C(=O)O)C2CCC(O)CC2)CC1 (stereo not drawn) [Compound 25, 3-[(4-trans-hydroxy-cyclohexyl)-(4-trans-methyl-cyclohexanecarbonyl)-amino]-5-(4-oxo-cyclohex-1-enyl)-thiophene-2-carboxylic acid] | 5 to 25 µM |
| CC1CCC(C(=O)N(c2cc(C3=CC/C(=N/OCc4ccccc4)CC3)sc2C(=O)O)C2CCC(O)CC2)CC1 (stereo not drawn) [Compound 26, 5-{4-benzyloxyimino-cyclohex-1-enyl}-3-[(4-trans-hydroxy-cyclohexyl)-(4-trans-methyl-cyclohexanecarbonyl)-amino]-thiophene-2-carboxylic acid] | < 5 µM |
| CCO/N=C1/CC=C(c2cc(N(C(=O)C3CCC(C)CC3)C3CCC(O)CC3)c(C(=O)O)s2)CC1 (stereo not drawn) [Compound 27, 5-{4-ethoxyimino-cyclohex-1-enyl}-3-[(4-trans-hydroxy-cyclohexyl)-(4-trans-methyl-cyclohexanecarbonyl)-amino]-thiophene-2-carboxylic acid] | < 5 µM |
| C[C@H]1CC[C@H](C(=O)N(c2cc(C3=CCCCC3)sc2C(=O)O)C2CCOCC2)CC1 [Compound 29, 5-cyclohex-1-enyl-3-[(trans-4-methyl-cyclohexanecarbonyl)-(tetrahydro-pyran-4-yl)-amino]-thiophene-2-carboxylic acid] | < 5 µM |
| C[C@H]1CC[C@H](C(=O)N(c2cc(C3=CCCCC3)sc2C(=O)O)C2COCOC2)CC1 [Compound 30, 5-cyclohex-1-enyl-3-[[1,3]dioxan-5-yl-(trans-4-methylcyclohexanecarbonyl)-amino]-thiophene-2-carboxylic acid] | < 5 µM |
| CC(C)N(C(=O)c1ccc(Cl)cc1Cl)c1cc(C2=CCCCC2)sc1C(=O)O [Compound 31, 5-cyclohex-1-enyl-3-[(2,4-dichloro-benzoyl)-isopropyl-amino]-thiophene-2-carboxylic acid] | 5 to 25 µM |
| CC1CCC(C(=O)N(c2cc(C3=CCC(O)CC3)sc2C(=O)O)C2CCC(O)CC2)CC1 (stereo not drawn) [Compound 34, RS-5-(4-hydroxy-cyclohex-1-enyl)-3-[(4-trans-hydroxy-cyclohexyl)-(4-trans-methyl-cyclohexanecarbonyl)-amino]-thiophene-2-carboxylic acid] | < 5 µM |
| CC1CCC(C(=O)N(c2cc(C3=CCC(C)(C)CC3)sc2C(=O)O)C2CCC(O)CC2)CC1 (stereo not drawn) [Compound 35, 5-(4,4-dimethyl-cyclohex-1-enyl)-3-[(4-trans-4-hydroxy-cyclohexyl)-(trans-4-methyl-cyclohexanecarbonyl)-amino]-thiophene-2-carboxylic acid] | < 5 µM |
| CN(c1cc(C2=CCCCC2)sc1C(=O)O)C(=O)[C@H]1CC[C@H](C)CC1 [Compound 37, 5-cyclohex-1-enyl-3-[methyl-(trans-4-methyl-cyclohexanecarbonyl)-amino]-thiophene-2-carboxylic acid] | 5 to 25 µM |
| CC1(C)CCC(N(c2cc(C3=CCCCC3)sc2C(=O)O)C(=O)[C@H]2CC[C@H](C)CC2)CC1 [Compound 38, 5-cyclohex-1-enyl-3-[(4,4-dimethyl-cyclohexyl)-(trans-4-methyl-cyclohexanecarbonyl)-amino]-thiophene-2-carboxylic acid] | < 5 µM |
| C[C@H]1CC[C@H](C(=O)N(c2cc(C3=CCCCC3)sc2C(=O)O)[C@H]2CC[C@@H](n3cncn3)CC2)CC1 [Compound 41, 5-cyclohex-1-enyl-3-[(trans-4-methyl-cyclohexanecarbonyl)-(cis 4-[1,2,4]triazol-1-yl-cyclohexyl)-amino]-thiophene-2-carboxylic acid] | < 5 µM |
| C[C@H]1CC[C@H](C(=O)N(c2cc(C3=CCCCC3)sc2C(=O)O)C2CCSCC2)CC1 [Compound 42, 5-cyclohex-1-enyl-3-[(trans-4-methyl-cyclohexanecarbonyl)-(tetrahydrothiopyran-4-yl)-amino]-thiophene-2-carboxylic acid] | < 5 µM |
| CC1CCC(C(=O)N(c2cc(C3=CCCCC3)sc2C(=O)O)C2CCC(C(C)(C)C)CC2)CC1 (stereo not drawn) [Compound 44, 3-[(4-trans-tert-butyl-cyclohexyl)-(4-trans-methyl-cyclohexanecarbonyl)-amino]-5-cyclohex-1-enyl-thiophene-2-carboxylic acid] | 5 to 25 µM |
